Data set [1] has as its system purified CD4+ T cells. In words: NK lysis sensitivity of treated CD4+ T cells, 4-h 51Cr-release assay with activated autologous purified NK cells. To be noted: 6-mers peptide, preliminary experiment. It counts as cell-based, human. As for the experimental part: NK lines were generated from PBMC, and then purified using the StemSep cell separation system and the NK cell enrichment antibody cocktail (StemCell technologies). NK purified cells were cultured in MyeloCult H5100 medium (StemCell technologies) supplemented with 100 units rhIL-2 (Boheringer). The purity of these preparations was evaluated by flow cytometry after staining with anti-CD3 (BD), anti-CD56 (BD), anti-NKp44, and anti-NKp46 mAbs.
The cytololytic activity was assayed in 4-h ^51Cr-release assay as previously described. Briefly, the target cells were labeled for 2-h at 37° C. with 100 μCi per 10^6 cells Na^51Cr (Amersham), and washed twice with culture medium. The target cells were then distributed in round-bottomed 96-well microtiter plates (4×10^3 cells per well), and the effector cells were added at several E/T ratio. The plates were incubated 4-h at 37° C. The supernatant were then collected and ^51Cr-release was measured in a gamma counted. In experiments in which Abs were included, these were added to final concentration of 20 μg/ml. The relative specific ^51Cr-release was calculated as previously described. Values for spontaneous ^51Cr-release, which are deducted in the calculation, were between 10 and 20% of the total incorporated radioactivity. The results are presented after subtraction of the nonspecific lysis obtained with control targets. […]

Data set [2] has as its system purified CD4+ T cells. Type of data set: cell-based, human. To be noted: 6-mers peptide, preliminary experiment.

Consider “H-SWSNKS-OH [NH2-SWSNKS—COOH, NH2-SWSNKS—COOH (SEQ ID NO: 7)]”, for which the NK cytotoxic activity entry in the data set on purified CD4+ T cells [1] is on record as “any increased”. Moreover, in the data set on purified CD4+ T cells [2], the “Cell surface expression of NKp44L” value is given as “any increased”.

The record behind these values is US8372955B2, “Purified antibody to the extracellular domain of NKp44L” (Assistance Publique Hopitaux de Paris, priority 2003, dated 2013).
